Calls of active or inactive are those of the source. How the calls were made is not given here.
System: CCRIS mutagenicity, Ames/micronucleus/aberration tests
Test: CCRIS mutagenicity studies
[1] = Test System: AMES SALMONELLA TYPHIMURIUM, Strain/Indicator: TA97, Metabolic Activation: HAMSTER, LIVER, S-9, AROCLOR 1254 (10 OR 30%), Method: PREINCUBATION
[2] = Test System: AMES SALMONELLA TYPHIMURIUM, Strain/Indicator: TA97, Metabolic Activation: NONE, Method: PREINCUBATION
[3] = Test System: AMES SALMONELLA TYPHIMURIUM, Strain/Indicator: TA97, Metabolic Activation: RAT, LIVER, S-9, AROCLOR 1254 (10 OR 30%), Method: PREINCUBATION
[4] = Test System: AMES SALMONELLA TYPHIMURIUM, Strain/Indicator: TA98, Metabolic Activation: NONE, Method: PREINCUBATION
[5] = Test System: AMES SALMONELLA TYPHIMURIUM, Strain/Indicator: TA100, Metabolic Activation: NONE, Method: PREINCUBATION
[6] = Test System: AMES SALMONELLA TYPHIMURIUM, Strain/Indicator: TA1535, Metabolic Activation: NONE, Method: PREINCUBATION

CC(=O)CC(C)C
mutagenic call [1]: inactive; negative
mutagenic call [2]: inactive; negative
mutagenic call [3]: inactive; negative
mutagenic call (Test System: AMES SALMONELLA TYPHIMURIUM, Strain/Indicator: TA98, Metabolic Activation: HAMSTER, LIVER, S-9, AROCLOR 1254 (10%), Method: PREINCUBATION): inactive; negative
mutagenic call (Test System: AMES SALMONELLA TYPHIMURIUM, Strain/Indicator: TA98, Metabolic Activation: HAMSTER, LIVER, S-9, AROCLOR 1254 (30%), Method: PREINCUBATION): inactive; negative
mutagenic call [4]: inactive; negative
mutagenic call (Test System: AMES SALMONELLA TYPHIMURIUM, Strain/Indicator: TA98, Metabolic Activation: RAT, LIVER, S-9, AROCLOR 1254 (10%), Method: PREINCUBATION): inactive; negative
mutagenic call (Test System: AMES SALMONELLA TYPHIMURIUM, Strain/Indicator: TA98, Metabolic Activation: RAT, LIVER, S-9, AROCLOR 1254 (30%), Method: PREINCUBATION): inactive; negative
mutagenic call (Test System: AMES SALMONELLA TYPHIMURIUM, Strain/Indicator: TA98, Metabolic Activation: RAT, LIVER, S-9, AROCLOR 1254, Method: PREINCUBATION): inactive; negative
mutagenic call (Test System: AMES SALMONELLA TYPHIMURIUM, Strain/Indicator: TA100, Metabolic Activation: HAMSTER, LIVER, S-9, AROCLOR 1254 (10%), Method: PREINCUBATION): inactive; negative
mutagenic call (Test System: AMES SALMONELLA TYPHIMURIUM, Strain/Indicator: TA100, Metabolic Activation: HAMSTER, LIVER, S-9, AROCLOR 1254 (30%), Method: PREINCUBATION): inactive; negative
mutagenic call [5]: inactive; negative
mutagenic call (Test System: AMES SALMONELLA TYPHIMURIUM, Strain/Indicator: TA100, Metabolic Activation: RAT, LIVER, S-9, AROCLOR 1254 (10%), Method: PREINCUBATION): inactive; negative
mutagenic call (Test System: AMES SALMONELLA TYPHIMURIUM, Strain/Indicator: TA100, Metabolic Activation: RAT, LIVER, S-9, AROCLOR 1254 (30%), Method: PREINCUBATION): inactive; negative
mutagenic call (Test System: AMES SALMONELLA TYPHIMURIUM, Strain/Indicator: TA100, Metabolic Activation: RAT, LIVER, S-9, AROCLOR 1254, Method: PREINCUBATION): inactive; negative
mutagenic call (Test System: AMES SALMONELLA TYPHIMURIUM, Strain/Indicator: TA1535, Metabolic Activation: HAMSTER, LIVER, S-9, AROCLOR 1254 (10%), Method: PREINCUBATION): inactive; negative
mutagenic call (Test System: AMES SALMONELLA TYPHIMURIUM, Strain/Indicator: TA1535, Metabolic Activation: HAMSTER, LIVER, S-9, AROCLOR 1254 (30%), Method: PREINCUBATION): inactive; negative
mutagenic call [6]: inactive; negative
mutagenic call (Test System: AMES SALMONELLA TYPHIMURIUM, Strain/Indicator: TA1535, Metabolic Activation: RAT, LIVER, S-9, AROCLOR 1254 (10%), Method: PREINCUBATION): inactive; negative
mutagenic call (Test System: AMES SALMONELLA TYPHIMURIUM, Strain/Indicator: TA1535, Metabolic Activation: RAT, LIVER, S-9, AROCLOR 1254 (30%), Method: PREINCUBATION): inactive; negative
mutagenic call (Test System: AMES SALMONELLA TYPHIMURIUM, Strain/Indicator: TA1535, Metabolic Activation: RAT, LIVER, S-9, AROCLOR 1254, Method: PREINCUBATION): inactive; negative
mutagenic call (Test System: AMES SALMONELLA TYPHIMURIUM, Strain/Indicator: TA1537, Metabolic Activation: NONE, Method: PREINCUBATION): inactive; negative
mutagenic call (Test System: AMES SALMONELLA TYPHIMURIUM, Strain/Indicator: TA1537, Metabolic Activation: RAT, LIVER, S-9, AROCLOR 1254, Method: PREINCUBATION): inactive; negative
mutagenic call (Test System: AMES SALMONELLA TYPHIMURIUM, Strain/Indicator: TA1538, Metabolic Activation: NONE, Method: PREINCUBATION): inactive; negative
mutagenic call (Test System: AMES SALMONELLA TYPHIMURIUM, Strain/Indicator: TA1538, Metabolic Activation: RAT, LIVER, S-9, AROCLOR 1254, Method: PREINCUBATION): inactive; negative
mutagenic call (Test System: MOUSE LYMPHOMA, Strain/Indicator: L5178Y (TK+/TK-), Metabolic Activation: NONE, Method: SUSPENSION/PLATE): active; positive
mutagenic call (Test System: MOUSE LYMPHOMA, Strain/Indicator: L5178Y (TK+/TK-), Metabolic Activation: RAT, LIVER, S-9, AROCLOR 1242 AND AROCLOR 1254 (2:1), Method: SUSPENSION/PLATE): inactive; negative

O=[N+]([O-])c1ccc2c3c(ccc([N+](=O)[O-])c13)-c1ccccc1-2
mutagenic call (Test System: AMES SALMONELLA TYPHIMURIUM, Strain/Indicator: TA97, Metabolic Activation: NONE): active; positive
mutagenic call (Test System: AMES SALMONELLA TYPHIMURIUM, Strain/Indicator: TA98(1,8-DNP6), Metabolic Activation: NONE): active; positive
mutagenic call (Test System: AMES SALMONELLA TYPHIMURIUM, Strain/Indicator: TA98(NR), Metabolic Activation: NONE): active; positive
mutagenic call (Test System: AMES SALMONELLA TYPHIMURIUM, Strain/Indicator: TA98, Metabolic Activation: NONE): active; positive
mutagenic call (Test System: AMES SALMONELLA TYPHIMURIUM, Strain/Indicator: TA100, Metabolic Activation: NONE): active; positive
mutagenic call (Test System: AMES SALMONELLA TYPHIMURIUM, Strain/Indicator: TA1535, Metabolic Activation: NONE): inactive; negative
mutagenic call (Test System: AMES SALMONELLA TYPHIMURIUM, Strain/Indicator: TA1537, Metabolic Activation: NONE): active; positive
mutagenic call (Test System: AMES SALMONELLA TYPHIMURIUM, Strain/Indicator: TA1538, Metabolic Activation: NONE): active; positive
mutagenic call (Test System: AMES SALMONELLA TYPHIMURIUM, Strain/Indicator: TA1978, Metabolic Activation: NONE): inactive; negative

Oc1ccc2[nH]ccc2c1
mutagenic call [5]: inactive; negative

O[C@@H]1C=Cc2c(ccc3cc4c(ccc5ccccc54)cc23)[C@H]1O
mutagenic call (Test System: AMES SALMONELLA TYPHIMURIUM, Strain/Indicator: TA100, Metabolic Activation: RAT, LIVER, S-9, AROCLOR 1254, Method: STANDARD PLATE): active; positive

CC(=O)Nc1ccc(Oc2ccc(Cl)cc2Cl)cc1
mutagenic call (Test System: AMES SALMONELLA TYPHIMURIUM, Strain/Indicator: TA100, Metabolic Activation: NONE, Method: STANDARD PLATE): inactive; negative
mutagenic call (Test System: AMES SALMONELLA TYPHIMURIUM, Strain/Indicator: TA100, Metabolic Activation: RAT, LIVER, S-9, KANECLOR 500, Method: STANDARD PLATE): active; positive

COC(=O)c1oc(NO)c(-c2ccccc2)c1-c1ccccc1
mutagenic call [4]: inactive; negative
mutagenic call (Test System: AMES SALMONELLA TYPHIMURIUM, Strain/Indicator: TA98, Metabolic Activation: RAT, LIVER, S-9, AROCLOR, Method: PREINCUBATION): inactive; negative
mutagenic call [5]: inactive; negative
mutagenic call (Test System: AMES SALMONELLA TYPHIMURIUM, Strain/Indicator: TA100, Metabolic Activation: RAT, LIVER, S-9, AROCLOR, Method: PREINCUBATION): inactive; negative

Clc1nncc2cnccc12
mutagenic call [4]: inactive; negative
mutagenic call (Test System: AMES SALMONELLA TYPHIMURIUM, Strain/Indicator: TA98, Metabolic Activation: RAT, LIVER, S-9, PCB, Method: PREINCUBATION): inactive; negative
mutagenic call [5]: inactive; negative
mutagenic call (Test System: AMES SALMONELLA TYPHIMURIUM, Strain/Indicator: TA100, Metabolic Activation: RAT, LIVER, S-9, PCB, Method: PREINCUBATION): inactive; negative

NC(=O)c1ccccc1
mutagenic call [1]: inactive; negative
mutagenic call [2]: inactive; negative
mutagenic call [3]: inactive; negative
mutagenic call (Test System: AMES SALMONELLA TYPHIMURIUM, Strain/Indicator: TA98, Metabolic Activation: HAMSTER, LIVER, S-9, AROCLOR 1254 (10 OR 30%), Method: PREINCUBATION): inactive; negative
mutagenic call [4]: inactive; negative
mutagenic call (Test System: AMES SALMONELLA TYPHIMURIUM, Strain/Indicator: TA98, Metabolic Activation: RAT, LIVER, S-9, AROCLOR 1254 (10 OR 30%), Method: PREINCUBATION): inactive; negative
mutagenic call (Test System: AMES SALMONELLA TYPHIMURIUM, Strain/Indicator: TA100, Metabolic Activation: HAMSTER, LIVER, S-9, AROCLOR 1254 (10 OR 30%), Method: PREINCUBATION): inactive; negative
mutagenic call [5]: inactive; negative
mutagenic call (Test System: AMES SALMONELLA TYPHIMURIUM, Strain/Indicator: TA100, Metabolic Activation: RAT, LIVER, S-9, AROCLOR 1254 (10 OR 30%), Method: PREINCUBATION): inactive; negative
mutagenic call (Test System: AMES SALMONELLA TYPHIMURIUM, Strain/Indicator: TA1535, Metabolic Activation: HAMSTER, LIVER, S-9, AROCLOR 1254 (10 OR 30%), Method: PREINCUBATION): inactive; negative
mutagenic call [6]: inactive; negative
mutagenic call (Test System: AMES SALMONELLA TYPHIMURIUM, Strain/Indicator: TA1535, Metabolic Activation: RAT, LIVER, S-9, AROCLOR 1254 (10 OR 30%), Method: PREINCUBATION): inactive; negative

From PubChem BioAssay AID1259407 (Chemical Carcinogenesis Research Information System (CCRIS), 2018)
